One test deals with HCT-116. The test can be described thus: Cytotoxicity against human HCT116 cells. The format is functional, cell-based.
The test system of another test is Influenza A virus. The test is described as follows: Antiviral activity against influenza A virus by plaque inhibition assay. It counts as functional, organism-based.
In the next test the test system is Staphylococcus aureus. The test is described as follows: Antibacterial activity against methicillin-resistant Staphylococcus aureus. It counts as functional, organism-based.
A further test deals with Plasmodium falciparum. The test can be described thus: Antimalarial activity against Plasmodium falciparum 3D7 MRA-102, MR4/ATCC infected in human erythrocytes assessed as inhibition of parasite proliferation after 72 hrs by SYBR green assay. It counts as functional, organism-based.

Structures are written as SMILES. Calls of active or inactive are those of the source. No cut-off for these calls is given here.

Turning to `CC(C)=CCC[C@@](C)(O)[C@@H](O)CC/C(C)=C/COC[C@H]1O[C@@H](N2CCC(=O)NC2=O)[C@H](O)[C@@H]1O`, the outcome in the test with HCT-116, in the test on Influenza A virus and in the test on Staphylococcus aureus was inactive.

For `CC(C)=CCC/C(C)=C/COC[C@H]1O[C@@H](N2CCC(=O)NC2=O)[C@H](O)[C@@H]1O`, in the test with Influenza A virus, the outcome was Active.

As for `CC(C)=CCC[C@@]1(C)O[C@@H]1CC/C(C)=C/COC[C@H]1O[C@@H](N2CCC(=O)NC2=O)[C@H](O)[C@@H]1O`, the result in the test with HCT-116, in the test on Influenza A virus and in the test with Staphylococcus aureus was inactive. Further, in the test on Plasmodium falciparum, the IC50 (usually the concentration that gives 50% inhibition) was found to be 69.3 µM.

The record behind these values is ChEMBL document CHEMBL2417478, “Farnesides A and B, sesquiterpenoid nucleoside ethers from a marine-derived Streptomyces sp., strain CNT-372 from Fiji” (J Nat Prod, 2013).
